Assay results: patent publication US10111435B2, “Herbicidal compositions containing N-(1,3,4-oxadiazol-2-yl)-aryl carboxylic acid amides” (BAYER CROPSCIENCE AKTIENGESELLSCHAFT, priority 2013, dated 2018)

What was measured:
Format in all cases: in vivo
[1] = tested on: Bromus sterilis (BROST); assay: greenhouse post-emergence herbicidal efficacy against BROST
Protocol: (§1) All trials whose results are shown were conducted in a greenhouse by the methodology specified below. The effect of the inventive herbicidal compositions was examined on the following harmful plants 14 and 21 days after application:
(§2) Echinochloa crus-galli (ECHCG), Eleusine indica (ELEIN), Setaria viridis (SETVI), Amaranthus retroflexus (AMARE), Chenopodium album (CHEAL), Kochia scoparia (KCHSC), Solanum nigrum (SOLNI), Avena fatua (AVEFA), Bromus sterilis (BROST), Lolium multiflorum (LOLMU), Phalaris minor (PHAMI), Poa annua (POAAN), Galium aparine (GALAP), Matricaria inodora (MATIN) and Polygonum convolvulus (POLCO).
(§3) The harmful plant seeds were sown in pots (diameter 8 cm) with sandy loam soil and germinated under optimal conditions. The inventive herbicidal compositions or the active ingredients alone were applied post-emergence to the planted pots with a spray volume of 300 L/ha. The trial was conducted in a greenhouse under optimum growth conditions. The herbicidal effects were assessed visually by comparison of untreated and treated plants. The percentages mean: 0%=no effects, 100%=the plants die off completely).
(§4) The abbreviations mean: • a.i.=active ingredient • E^C=expected value according to Colby (E^C=A+B−A×B/100) • Diff: =difference (%) of measured value from expected value (%) (measured value minus expected value)
(§5) Assessment: • measured value E is greater than E^C:->synergism (+ diff.) • measured value E equals E^C:->additive effect • measured value E is smaller than E^C:->antagonism(− diff.)

[2] = tested on: Galium aparine (GALAP); assay: greenhouse post-emergence herbicidal efficacy against GALAP
Protocol: as §1, §2, §3, §4, §5

[3] = tested on: Polygonum convolvulus (POLCO); assay: greenhouse post-emergence herbicidal efficacy against POLCO
Protocol: as §1, §2, §3, §4, §5

[4] = tested on: Eleusine indica (ELEIN); assay: greenhouse post-emergence herbicidal efficacy against ELEIN; settings: for pest or weed control at 0.5 g/ha: 0.5 g of a.i./ha; for pest or weed control at 2 g/ha: 2 g of a.i./ha
Protocol: as §1, §2
as §3, with “completely). The percentages are used to calculate interactions between individual treatments and combination treatments according to S. R. Colby, Weeds 15, pages 20 to 22 (1967).” for “completely).”
as §4, §5

[5] = tested on: Phalaris minor (PHAMI); assay: greenhouse post-emergence herbicidal efficacy against PHAMI
Protocol: as §1, §2, §3, §4, §5

[6] = tested on: Lolium multiflorum (LOLMU); assay: greenhouse post-emergence herbicidal efficacy against LOLMU
Protocol: as §1, §2, §3, §4, §5

[7] = tested on: Setaria viridis (SETVI); assay: greenhouse post-emergence herbicidal efficacy against SETVI; settings: 21 days after application
Protocol: as §1, §2
as §3, with “completely). The percentages are used to calculate interactions between individual treatments and combination treatments according to S. R. Colby, Weeds 15, pages 20 to 22 (1967).” for “completely).”
as §4, §5

[8] = tested on: Chenopodium album (CHEAL); assay: greenhouse post-emergence herbicidal efficacy against CHEAL; settings: 21 days after application
Protocol: as §1, §2
as §3, with “completely). The percentages are used to calculate interactions between individual treatments and combination treatments according to S. R. Colby, Weeds 15, pages 20 to 22 (1967).” for “completely).”
as §4, §5

[9] = tested on: Echinochloa crus-galli (ECHCG); assay: greenhouse post-emergence herbicidal efficacy against ECHCG
Protocol: as §1, §2
as §3, with “completely). The percentages are used to calculate interactions between individual treatments and combination treatments according to S. R. Colby, Weeds 15, pages 20 to 22 (1967).” for “completely).”
as §4, §5

[10] = tested on: Poa annua (POAAN); assay: greenhouse post-emergence herbicidal efficacy against POAAN
Protocol: as §1, §2, §3, §4, §5

[11] = tested on: Avena fatua (AVEFA); assay: greenhouse post-emergence herbicidal efficacy against AVEFA
Protocol: as §1, §2, §3, §4, §5

[12] = tested on: Matricaria inodora (MATIN); assay: greenhouse post-emergence herbicidal efficacy against MATIN
Protocol: as §1, §2, §3, §4, §5

[13] = tested on: Kochia scoparia (KCHSC); assay: greenhouse post-emergence herbicidal efficacy against KCHSC
Protocol: as §1, §2
as §3, with “completely). The percentages are used to calculate interactions between individual treatments and combination treatments according to S. R. Colby, Weeds 15, pages 20 to 22 (1967).” for “completely).”
as §4, §5

[14] = 14 days after application, 5 g of a.i./ha
[15] = 14 days after application, 20 g of a.i./ha
[16] = 21 days after application, g of a.i./ha: A1-3 5, pinoxaden 20
[17] = 21 days after application, g of a.i./ha: A1-3 20, pinoxaden 5
[18] = 21 days after application, g of a.i./ha: A1-3 20, pinoxaden 20
[19] = 14 days after application, 4 g of a.i./ha
[20] = 21 days after application, 4 g of a.i./ha
[21] = 14 days after application, 1 g of a.i./ha
[22] = 21 days after application, 1 g of a.i./ha
[23] = 14 days after application, g of a.i./ha: A1-57 12.5, aclonifen 200
[24] = 14 days after application, g of a.i./ha: A1-57 12.5, aclonifen 800
[25] = 14 days after application, g of a.i./ha: A1-57 50, aclonifen 800
[26] = 21 days after application, g of a.i./ha: A1-57 12.5, aclonifen 800
[27] = 21 days after application, g of a.i./ha: A1-57 50, aclonifen 800
[28] = 14 days after application, g of a.i./ha: A1-57 50, aclonifen 200
[29] = 21 days after application, g of a.i./ha: A1-57 12.5, aclonifen 200
[30] = 14 days after application, 50 g of a.i./ha
[31] = 21 days after application, g of a.i./ha: A1-13 2.5, mesosulfuron-methyl 2.5
[32] = 21 days after application, g of a.i./ha: A1-13 2.5, mesosulfuron-methyl 10
[33] = 21 days after application, g of a.i./ha: A1-13 10, mesosulfuron-methyl 10
[34] = 14 days after application, 2.5 g of a.i./ha
[35] = 14 days after application, 10 g of a.i./ha
[36] = Eleusine indica, post-emergence, 336 h, 14 days after application
[37] = Eleusine indica, post-emergence, 504 h, 21 days after application
[38] = 21 days after application, 0.5 g of a.i./ha
[39] = 21 days after application, 2 g of a.i./ha

COCc1nnc(NC(=O)c2ccc(C(F)(F)F)c(S(C)(=O)=O)c2C)o1 [A1-3]
Efficacy [1, 14]: 0%
Efficacy [1, 15]: 5%
Efficacy [2, 14]: 40%
Efficacy [2, 16]: 5%
Efficacy [2, 17]: 5%
Efficacy [2, 18]: 5%
Efficacy [3, 14]: 0%
Efficacy [3, 15]: 10%
Efficacy [3, 17]: 5%
Efficacy [3, 18]: 5%
Efficacy [4, 19]: 50%
Efficacy [4, 20]: 20%
Efficacy [5, 14]: 0%
Efficacy [5, 15]: 20%
Efficacy [5, 17]: 5%
Efficacy [5, 18]: 5%
Efficacy [6, 14]: 0%
Efficacy [6, 16]: 0%
Efficacy [6, 17]: 5%
Efficacy ([7]; 4 g of a.i./ha): 20%
Efficacy ([7]; 1 g of a.i./ha): 10%
Efficacy ([8]; 1 g of a.i./ha): 20%
Efficacy [9, 21]: 0%
Efficacy [9, 19]: 40%
Efficacy [9, 20]: 10%
Efficacy [9, 22]: 0%
Efficacy [10, 14]: 0%
Efficacy [10, 15]: 5%
Efficacy [10, 16]: 0%
Efficacy [10, 18]: 3%
Efficacy [11, 14]: 0%
Efficacy [11, 15]: 0%
Efficacy [12, 14]: 30%
Efficacy [13, 19]: 40%
Efficacy [13, 20]: 20%

Cc1nnc(NC(=O)c2ccc(S(C)(=O)=O)c(OCCF)c2Cl)o1 [A1-57]
Efficacy [1, 23]: 0%
Efficacy [1, 24]: 0%
Efficacy [1, 25]: 40%
Efficacy [1, 26]: 0%
Efficacy [1, 27]: 15%
Efficacy [2, 23]: 30%
Efficacy [2, 28]: 60%
Efficacy [2, 27]: 40%
Efficacy [3, 23]: 65%
Efficacy [3, 24]: 65%
Efficacy [3, 29]: 50%
Efficacy [4, 22]: 10%
Efficacy [5, 23]: 50%
Efficacy [5, 24]: 50%
Efficacy [5, 28]: 70%
Efficacy [5, 29]: 20%
Efficacy [5, 26]: 20%
Efficacy [6, 24]: 0%
Efficacy [6, 25]: 35%
Efficacy ([8]; 1 g of a.i./ha): 30%
Efficacy [10, 23]: 15%
Efficacy [10, 24]: 15%
Efficacy [10, 28]: 50%
Efficacy [10, 25]: 50%
Efficacy [10, 26]: 10%
Efficacy ([10]; 21 days after application, g of a.i./ha: A1-57 50, aclonifen 200): 35%
Efficacy [10, 27]: 35%
Efficacy ([11]; 14 days after application, 12.5 g of a.i./ha): 0%
Efficacy [11, 30]: 0%
Efficacy [11, 23]: 0%
Efficacy [11, 26]: 0%
Efficacy [12, 23]: 60%
Efficacy [12, 24]: 60%
Efficacy [12, 25]: 85%
Efficacy [12, 27]: 80%
Efficacy [13, 21]: 40%
Efficacy [13, 22]: 20%

O=C(O)CNCP(=O)(O)O [glyphosate]
pest or weed control at 50 g/ha ([4]; Eleusine indica, post-emergence, 504 h, read-out: Efficacy): 0%
Efficacy ([8]; 50 g of a.i./ha): 30%
Efficacy [13, 30]: 30%
Efficacy ([13]; 21 days after application, 50 g of a.i./ha): 10%
Efficacy ([13]; 21 days after application, 200 g of a.i./ha): 30%

COC(=O)c1ccc(CNS(C)(=O)=O)cc1S(=O)(=O)NC(=O)Nc1nc(OC)cc(OC)n1 [mesosulfuron-methyl]
Efficacy [1, 31]: 0%
Efficacy [1, 32]: 0%
Efficacy [1, 33]: 0%
Efficacy [2, 34]: 30%
Efficacy [2, 35]: 30%
Efficacy [3, 32]: 0%
Efficacy [3, 33]: 0%
Efficacy [5, 34]: 0%
Efficacy [5, 35]: 5%
Efficacy [5, 31]: 0%
Efficacy [5, 32]: 5%
Efficacy [5, 33]: 5%
Efficacy [6, 33]: 15%
Efficacy [10, 34]: 15%
Efficacy [10, 35]: 40%
Efficacy [10, 32]: 40%
Efficacy [11, 35]: 5%
Efficacy [11, 32]: 0%
Efficacy [11, 33]: 0%
Efficacy [12, 34]: 0%
Efficacy [12, 35]: 0%

CCc1cc(C)cc(CC)c1-c1c(OC(=O)C(C)(C)C)n2n(c1=O)CCOCC2 [pinoxaden]
Efficacy [1, 14]: 0%
Efficacy [1, 15]: 10%
Efficacy [2, 15]: 0%
Efficacy [2, 16]: 0%
Efficacy [2, 17]: 0%
Efficacy [2, 18]: 0%
Efficacy [3, 14]: 0%
Efficacy [3, 15]: 0%
Efficacy [3, 17]: 0%
Efficacy [3, 18]: 0%
Efficacy [5, 14]: 10%
Efficacy [5, 15]: 50%
Efficacy [5, 17]: 10%
Efficacy [5, 18]: 20%
Efficacy [6, 15]: 85%
Efficacy [6, 16]: 80%
Efficacy [6, 17]: 30%
Efficacy [10, 14]: 0%
Efficacy [10, 15]: 0%
Efficacy [10, 16]: 0%
Efficacy [10, 18]: 0%
Efficacy [11, 14]: 0%
Efficacy [11, 15]: 20%
Efficacy [12, 15]: 0%

CS(=O)(=O)c1ccc(C(=O)C2C(=O)CCCC2=O)c(Cl)c1COCC(F)(F)F [tembotrione]
pest or weed control at 0.5 g/ha [4, 36]: 30%
pest or weed control at 2 g/ha [4, 36]: 40%
pest or weed control at 0.5 g/ha [4, 37]: 0%
pest or weed control at 2 g/ha [4, 37]: 10%
Efficacy ([7]; 0.5 g of a.i./ha): 0%
Efficacy ([7]; 2 g of a.i./ha): 10%
Efficacy ([8]; 2 g of a.i./ha): 30%
Efficacy ([9]; 14 days after application, 0.5 g of a.i./ha): 10%
Efficacy [9, 38]: 10%
Efficacy [9, 39]: 60%
Efficacy ([13]; 14 days after application, 2 g of a.i./ha): 20%
Efficacy [13, 38]: 0%
Efficacy [13, 39]: 10%
